Where “and” joins values, the source holds several entries; their conditions need not be identical. Identical values can stand only once. Like-named read-outs stand apart in the source and are kept apart here.
Biological target: M. musculus (heart) complex I (Mus musculus, UniProt P03888+Q91WD5+Q9DC70)
Assay: biochemical
Format: biochemical
Design: Complex I activity, dose-response data: unit not given here
Description: Six 8–10-week-old C57Bl/6 female mice (Charles River) were freshly dissected, and their livers and hearts collected into separate 1.5 mL microcentrifuge tubes. Organs were flash-frozen in liquid nitrogen and stored at −80 °C prior to use. The heart of a freshly slaughtered adult cow was obtained from a local abattoir (Peel Sausage Inc.), chopped into ~1-inch cubes and collected into 50 mL falcon tubes. Falcon tubes were flash-frozen in a container of dry ice and stored at −80 °C prior to use. Isolation of mitochondria from all mammalian tissue was carried out following the protocol described above. However, due to size, the initial homogenization of tissue was performed by 15 strokes in a dounce homogenizer (mouse heart) or with several 5 s pulses in small Nutribullet blender (cow heart). All mouse protocols for mouse care and dissection were reviewed and approved by the University of Toronto Animal Care Committee, in accordance with the Canadian Council on Animal Care.
The enzymatic activities of individual ETC complexes (I-IV) were assessed spectrophotometrically in isolated mitochondria using a Varioskan LUX Multimode plate reader (ThermoFisher Scientific). Mitochondrial pellets previously isolated were thawed on ice and resuspended in ice-cold isolation buffer (250 mM sucrose, 10 mM Tris (pH 7.5), 1 mM EDTA). The BCA assay (Walker, 1994) was used to quantify the protein concentration of mitochondria suspensions; solutions were diluted to a concentration of 0.2 mg/mL for use in all assays. For the complex I assay, mitochondria pellets were freeze-thawed on ice three times to increase enzyme accessibility. […] 20 μL mitochondria suspension was then added/mixed with a pipette to initiate the reaction. Immediately following the addition of mitochondria, absorbance was measured (complex I and II: 600 nm; complex III and IV: 550 nm) in 30 s intervals over 15 min. Enzymatic activity was determined in each reaction by plotting absorbance versus time and calculating the slope of the curve during the initial linear phase of the reaction. […] Percent activity of each complex was calculated by dividing the enzyme-specific activity of each well by the enzyme-specific activity of the corresponding solvent controls.
Chemical solutions were prepared in complex I assay buffer composed of 25 mM KPi buffer (pH 7.5), 3 mg/mL bovine serum albumin (BSA), 80 μM NADH, 60 μM decylubiquinone, 160 μM DCIP, 2 μM antimycin A and 2 mM KCN.
For preliminary screens of hit compounds, compounds were screened at 100 μM; data are the average of at least three biological replicates. The complex I and II activity assays were used for additional dose-response experiments. […] For dose responses of benzimidazole analogs, data represent the average of two biological replicates. For all other dose-responses, data represent the average of at least three biological replicates.

[1] = M. musculus (heart) mitochondria, mean of replicates, read-out: percent (%) in vitro complex I activity relative to solvent control
[2] = M. musculus (heart) mitochondria, single replicate, read-out: percent (%) in vitro complex I activity relative to solvent control
[3] = M. musculus (heart) mitochondria, Mean of replicates, read-out: in vitro complex I activity relative to solvent control
[4] = M. musculus (heart) mitochondria, single replicate, read-out: in vitro complex I activity relative to solvent control

Chain of M. musculus (heart) complex I (Q91WD5 34-463): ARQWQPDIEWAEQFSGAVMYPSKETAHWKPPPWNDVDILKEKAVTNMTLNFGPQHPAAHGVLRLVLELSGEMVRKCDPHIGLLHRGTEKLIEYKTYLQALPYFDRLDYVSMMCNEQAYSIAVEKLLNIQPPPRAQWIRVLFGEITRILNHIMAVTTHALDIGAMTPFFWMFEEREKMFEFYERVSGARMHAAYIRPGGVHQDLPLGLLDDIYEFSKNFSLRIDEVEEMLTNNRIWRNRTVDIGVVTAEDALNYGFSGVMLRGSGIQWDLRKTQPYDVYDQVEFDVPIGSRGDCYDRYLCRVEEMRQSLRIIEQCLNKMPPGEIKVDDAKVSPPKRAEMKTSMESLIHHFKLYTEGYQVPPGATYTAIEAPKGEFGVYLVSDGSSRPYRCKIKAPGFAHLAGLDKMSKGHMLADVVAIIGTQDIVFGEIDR
Chain of M. musculus (heart) complex I (Q9DC70 36-224): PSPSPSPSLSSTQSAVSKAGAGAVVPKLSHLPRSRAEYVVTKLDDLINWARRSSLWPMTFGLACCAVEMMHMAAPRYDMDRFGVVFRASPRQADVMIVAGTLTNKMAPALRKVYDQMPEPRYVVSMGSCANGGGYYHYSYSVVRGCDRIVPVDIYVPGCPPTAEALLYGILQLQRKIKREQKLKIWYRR
Chain of M. musculus (heart) complex I (P03888 whole entry): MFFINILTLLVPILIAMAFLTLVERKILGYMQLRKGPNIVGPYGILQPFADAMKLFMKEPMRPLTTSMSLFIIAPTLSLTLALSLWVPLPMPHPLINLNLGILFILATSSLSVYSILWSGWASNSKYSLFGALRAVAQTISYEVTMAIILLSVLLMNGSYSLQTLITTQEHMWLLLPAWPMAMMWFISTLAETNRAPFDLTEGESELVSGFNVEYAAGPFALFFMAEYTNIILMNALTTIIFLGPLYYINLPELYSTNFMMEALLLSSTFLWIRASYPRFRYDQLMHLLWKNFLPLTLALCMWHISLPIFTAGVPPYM

Structure (SMILES): CC(C)Cc1ccc(C(C)c2nc3ccccc3n2C)cc1 (centres unmarked) [NPD8790]
- remaining activity at 0.125 µM [1]: 101%
- remaining activity at 0.125 µM [2]: 99.7%
- remaining activity at 0.313 µM [1]: 97.5%
- remaining activity at 0.313 µM [2]: 97.7%
- remaining activity at 0.625 µM [1]: 100%
- remaining activity at 0.625 µM [2]: 100%
- remaining activity at 1.5 µM [1]: 100%
- remaining activity at 1.5 µM [2]: 100%
- remaining activity at 3 µM [1]: 99.1%
- remaining activity at 3 µM [2]: 100%
- remaining activity at 15 µM [1]: 78.9%
- remaining activity at 15 µM [2]: 77.5%
- remaining activity at 37.5 µM [1]: 44.3%
- remaining activity at 37.5 µM [2]: 40.4%
- remaining activity at 75 µM [1]: 24.7%
- remaining activity at 75 µM [2]: 18%
- remaining activity at 0.06 µM (M. musculus (heart) mitochondria, 0.06 µM, Mean of replicates, read-out: in vitro complex I activity relative to solvent control): 103%
- remaining activity at 0.13 µM [3]: 101%
- remaining activity at 0.13 µM [4]: 99.7%
- remaining activity at 0.313 µM [3]: 97.5%
- remaining activity at 0.313 µM [4]: 97.7%
- remaining activity at 0.625 µM [3]: 100%
- remaining activity at 0.625 µM [4]: 100%
- remaining activity at 1.5 µM [3]: 100%
- remaining activity at 1.5 µM [4]: 100%
- remaining activity at 3 µM [3]: 99.1%
- remaining activity at 3 µM [4]: 100%
- remaining activity at 15 µM [3]: 78.9%
- remaining activity at 15 µM [4]: 77.5%
- remaining activity at 37.5 µM [3]: 44.3%
- remaining activity at 37.5 µM [4]: 40.4%
- remaining activity at 75 µM [3]: 24.7%
- remaining activity at 75 µM [4]: 18%
- activity at 0.0001 µM (M. musculus, Mean of replicates, read-out: Complex I activity, dose-response data): 100%
- activity at 0.0001 µM (M. musculus, individual replicates (Rep), read-out: Complex I activity, dose-response data): 100%
- activity at 0.0005 µM (M. musculus, dose 0.0005 µM, Mean of replicates, read-out: Complex I activity, dose-response data): 103%
- Complex I activity, dose-response data (M. musculus, dose 0.0005 µM, individual replicates (Rep)): 104.677 and 101.090 and 100.240
- activity at 0.0005 µM (M. musculus, dose 0.0005 µM, individual replicates (Rep), read-out: Complex I activity, dose-response data): 105%
- activity at 0.001 µM (M. musculus, dose 0.001 µM, Mean of replicates, read-out: Complex I activity, dose-response data): 103%
- Complex I activity, dose-response data (M. musculus, dose 0.001 µM, individual replicates (Rep)): 105.312 and 100.449 and 100.153
- activity at 0.001 µM (M. musculus, dose 0.001 µM, individual replicates (Rep), read-out: Complex I activity, dose-response data): 106%
- activity at 0.0025 µM (M. musculus, dose 0.0025 µM, Mean of replicates, read-out: Complex I activity, dose-response data): 104%
- Complex I activity, dose-response data (M. musculus, dose 0.0025 µM, individual replicates (Rep)): 112.270 and 101.643 and 99.207
- activity at 0.0025 µM (M. musculus, dose 0.0025 µM, individual replicates (Rep), read-out: Complex I activity, dose-response data): 103%
- activity at 0.005 µM (M. musculus, dose 0.005 µM, Mean of replicates, read-out: Complex I activity, dose-response data): 104%
- Complex I activity, dose-response data (M. musculus, dose 0.005 µM, individual replicates (Rep)): 110.480 and 103.776 and 102.056
- activity at 0.005 µM (M. musculus, dose 0.005 µM, individual replicates (Rep), read-out: Complex I activity, dose-response data): 101%
- activity at 0.013 µM (M. musculus, dose 0.013 µM, Mean of replicates, read-out: Complex I activity, dose-response data): 104%
- Complex I activity, dose-response data (M. musculus, dose 0.013 µM, individual replicates (Rep)): 111.361 and 104.185 and 100.073
- activity at 0.013 µM (M. musculus, dose 0.013 µM, individual replicates (Rep), read-out: Complex I activity, dose-response data): 99.2%
- activity at 0.025 µM (M. musculus, dose 0.025 µM, Mean of replicates, read-out: Complex I activity, dose-response data): 106%
- Complex I activity, dose-response data (M. musculus, dose 0.025 µM, individual replicates (Rep)): 117.035 and 103.670 and 100.685
- activity at 0.025 µM (M. musculus, dose 0.025 µM, individual replicates (Rep), read-out: Complex I activity, dose-response data): 102%
- activity at 0.063 µM (M. musculus, dose 0.063 µM, Mean of replicates, read-out: Complex I activity, dose-response data): 103%
- Complex I activity, dose-response data (M. musculus, dose 0.063 µM, individual replicates (Rep)): 102.752 and 117.261 and 99.301 and 94.461
- activity at 0.125 µM (M. musculus, dose 0.125 µM, Mean of replicates, read-out: Complex I activity, dose-response data): 101%
- Complex I activity, dose-response data (M. musculus, dose 0.125 µM, individual replicates (Rep)): 109.547 and 101.293 and 94.390
- activity at 0.125 µM (M. musculus, dose 0.125 µM, individual replicates (Rep), read-out: Complex I activity, dose-response data): 99.7%
- Complex I activity, dose-response data (M. musculus, dose 0.313 µM, individual replicates (Rep)): 201.293 and 194.390
- activity at 0.313 µM (M. musculus, dose 0.313 µM, individual replicates (Rep), read-out: Complex I activity, dose-response data): 210%
- Complex I activity, dose-response data (M. musculus, dose 0.625 µM, individual replicates (Rep)): 301.293 and 294.390
- activity at 0.625 µM (M. musculus, dose 0.625 µM, individual replicates (Rep), read-out: Complex I activity, dose-response data): 310%
- Complex I activity, dose-response data (M. musculus, dose 1.5 µM, individual replicates (Rep)): 401.293 and 394.390
- activity at 1.5 µM (M. musculus, dose 1.5 µM, individual replicates (Rep), read-out: Complex I activity, dose-response data): 410%
- activity at 3 µM (M. musculus, dose 3 µM, Mean of replicates, read-out: Complex I activity, dose-response data): 99.1%
- Complex I activity, dose-response data (M. musculus, dose 3 µM, individual replicates (Rep)): 102.668 and 98.080 and 95.248
- activity at 3 µM (M. musculus, dose 3 µM, individual replicates (Rep), read-out: Complex I activity, dose-response data): 100%
- activity at 15 µM (M. musculus, dose 15 µM, Mean of replicates, read-out: Complex I activity, dose-response data): 78.9%
- Complex I activity, dose-response data (M. musculus, dose 15 µM, individual replicates (Rep)): 87.100 and 75.283 and 75.658
- activity at 15 µM (M. musculus, dose 15 µM, individual replicates (Rep), read-out: Complex I activity, dose-response data): 77.5%
- activity at 37.5 µM (M. musculus, dose 37.5 µM, Mean of replicates, read-out: Complex I activity, dose-response data): 44.3%
- Complex I activity, dose-response data (M. musculus, dose 37.5 µM, individual replicates (Rep)): 50.337 and 43.421 and 43.042
- activity at 37.5 µM (M. musculus, dose 37.5 µM, individual replicates (Rep), read-out: Complex I activity, dose-response data): 40.4%
- activity at 75 µM (M. musculus, dose 75 µM, Mean of replicates, read-out: Complex I activity, dose-response data): 24.7%
- Complex I activity, dose-response data (M. musculus, dose 75 µM, individual replicates (Rep)): 29.417 and 25.967 and 25.618
- activity at 75 µM (M. musculus, dose 75 µM, individual replicates (Rep), read-out: Complex I activity, dose-response data): 18%
- IC50 (heart mitochondria): 28.8 µM and 28.9 µM

— PMC11079024, “Identification of a family of species-selective complex I inhibitors as potential anthelmintics” (Nature Communications, 2024)
